Key:
HCC1937 = assay: Cytotoxicity, HCC1937 cells; type: cell-based, human; conditions: Homo sapiens; HCC1937, triple negative, BRCA1 mutant; COH29 72 h
Procedure: (§1) All cell lines were acquired from the American Type Culture Collection (Manassas, Va., USA). Cells were maintained in RPMI 1640 medium (Mediatech) with 10% fetal bovine serum, 2 mM glutamine, and 100 U of penicillin and 100 μg of streptomycin per ml of medium (Sigma) at 37° C. in 5% CO2. To isolate HCC1437+BRCA1 cells, parental HCC1937 cells were transfected with pcDNA3.1 plasmid expressing full-length BRCA1 cDNA. Stable transfectant clones were selected and used for drug sensitivity assays. For stable transfection, cells at 30-40% confluence were incubated overnight with […] of plasmid DNA, using FUGENE® 6 transfectin reagent (Roche Molecular Biochemical, Monza, Italy) according to the manufacturer's instructions. Cells were then selected in puromycin (1 μg/ml) (Invitrogen life Technologies, La Jolla, Calif., USA.) After 20 to 30 days, viable puromycin-resistant colonies from HCC1937 transfections were expanded and screened. The clones that stably expressed […] and retained growth potential were assayed for BRCA1 expression by Western blot analysis. By Western blot analysis, we evaluated the restoration of BRCA1 expression in the puromycin-resistant cDNA/transfectant cells.
The MTT cytotoxicity assay was performed by incubating with MTT and monitoring the MTT formazan formed by viable cells with a microplate reader at a wavelength of 560 nm; the survival, ratio was determined using the formula: (Atest−Ablank)/(Acontrol−Ablank)×100%. The cytotoxicity was determined in 96-well plates using the semiautomatic fluorescence-based Digital Imaging Microscopy System (DIMSCAN). DIMSCAN uses digital imaging microscopy to quantify viable cells, which selectively accumulate FDA (fluorescein diacetate; Alfa Aesar, Ward Hill, Mass.). DIMSCAN is capable of measuring cytotoxicity over a 4 log dynamic range by quantifying total fluorescence per well (which is proportional to the number of viable cells) after elimination of the background fluorescence by digital thresholding and eosin Y (Mallinckrodt Baker, Center Valley, Pa.) quenching. […]

A2780-DDDP = assay: Cytotoxicity, A2780-DDDP cells; type: cell-based, human; conditions: Homo sapiens, cisplatin-resistant ovarian cells, read-out: IC50, mean ± SEM
Procedure: as §1
(§2) The MTT cytotoxicity assay was performed by incubating with MTT and monitoring the MTT formazan formed by viable cells with a microplate reader at a wavelength of 560 nm; the survival, ratio was determined using the formula: (Atest−Ablank)/(Acontrol−Ablank)×100%. The cytotoxicity was determined in 96-well plates using the semiautomatic fluorescence-based Digital Imaging Microscopy System (DIMSCAN). DIMSCAN uses digital imaging microscopy to quantify viable cells, which selectively accumulate FDA (fluorescein diacetate; Alfa Aesar, Ward Hill, Mass.). DIMSCAN is capable of measuring cytotoxicity over a 4 log dynamic range by quantifying total fluorescence per well (which is proportional to the number of viable cells) after elimination of the background fluorescence by digital thresholding and eosin Y (Mallinckrodt Baker, Center Valley, Pa.) quenching. Cells were seeded into 96-well plates in 100 μL of complete medium at 2,000 to 5,000 cells per well depending on cell line growth rate. After overnight incubation, test compound was added to each well at various concentrations in 50 μL of culture medium. After incubation with the drugs for 96 hours at 37° C., FDA (final concentration: 10 mg/mL) and eosin Y [final concentration: 0.1% (w/v)] were added to each well and the cells were incubated for an additional 20 minutes at 37° C. Total fluorescence per well was then measured using DIMSCAN, and the results were expressed as the ratio of the fluorescence in treated wells to the fluorescence in untreated wells (survival fraction).

RR = RR (Homo sapiens, UniProt P31350); conditions: previously reported, ref (6); cited from earlier work
NHEJ pathway = assay: NHEJ DNA repair, GFP-based chromosomal reporter EJ5-GFP; type: cell-based; conditions: EJ5-GFP reporter cells, 24 h
Procedure: The EJ2 cells were generated to evaluate Alt-NHEJ through monitoring the fluorescence intensity of GFP and EJ5 cells were used to determine NJEJ as described previously. (23) Cells were seeded into 6-well plate and treated with COH29 or cisplatin at different concentration for 24 hours. The cells were then trypsinized, washed, and analyzed by flow cytometry.

HCC1937 tumors = assay: Orthotopic tumor explant model, HCC1937; type: in vivo; conditions: HCC1937 tumors in mammary fat pads of NSG mice, daily oral 400 mg/kg, 28 days
Procedure: Experiments in mice were conducted under a protocol approved by the IACUC of City of Hope. Because HCC1937 and HCC1937+BRCA1 cells from slow-growing tumors, they were implanted using MATRIGEL™ (Becton-Dickinson Biosciences). To establish tumors 4×10^6 cells in 200 μL serum-free medium containing 50% MATRIGEL™ were injected into the mammary fat pads around the inguinal area of a pair of 8 week old female NSG mice. Once the initial tenors reached 13 mm in diameter, they were dissected out minced into 3 mm pieces and implanted into the inguinal area of the mammary fat pads of the experimental mice Tumors were measured over a 28-day period, and for each time point, the student t-test was used to determine the statistical significance between daily gavage with 400 mg/kg COH29 in 30% solutol and corresponding vehicle control. The p value less than 0.05 (2 sides) was considered to indicate statistical significance

UWB1.289 + BRCA1 = assay: Cytotoxicity, UWB1.289+BRCA1 cells; type: cell-based, human; conditions: Homo sapiens, UWB1289; UWB1.289 + BRCA1 (WT); COH29 72 h; read-out: IC50, mean ± SEM
Procedure: as §1
as §2, with “After incubation with the drugs for 96 hours at 37° C., FDA (final concentration: 10 mg/mL) and eosin Y [final concentration: 0.1% (w/v)] were added to each well and the cells were incubated for an additional 20 minutes at 37° C.” left out

Sequence of RR (P31350 whole entry): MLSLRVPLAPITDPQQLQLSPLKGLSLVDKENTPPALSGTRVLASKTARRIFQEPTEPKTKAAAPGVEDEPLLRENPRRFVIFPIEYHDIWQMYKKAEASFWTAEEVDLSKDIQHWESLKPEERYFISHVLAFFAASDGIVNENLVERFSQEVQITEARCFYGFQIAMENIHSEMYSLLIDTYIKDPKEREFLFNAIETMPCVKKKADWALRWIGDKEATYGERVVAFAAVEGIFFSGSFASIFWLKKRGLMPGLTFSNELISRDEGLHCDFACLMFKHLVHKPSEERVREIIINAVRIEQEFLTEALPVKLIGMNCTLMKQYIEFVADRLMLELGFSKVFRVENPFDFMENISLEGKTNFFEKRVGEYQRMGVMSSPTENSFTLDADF

Question: Which results are given for `O=C(Nc1nc(-c2ccc(O)c(O)c2)c(-c2ccccc2)s1)c1ccc(O)c(O)c1` [COH29]?
Answer: IC50 (HCC1937): 7.25 ± 0.64 µM; IC50 (A2780-DDDP): 6.47 ± 1.41 µM; effect of RR inhibition on dNTP (RR): causes dNTP depletion in vivo; NHEJ repair efficiency (NHEJ pathway): little effect on NHEJ repair; growth of tumors compared to vehicle (HCC1937 tumors): significantly (p=0.0007) suppressed; IC50 (UWB1.289 + BRCA1): 23.5 ± 2.38 µM
